In patent publication US20090069319A1, “IMIDAZOPYRIDINE ANALOGS AND THEIR USE AS AGONISTS OF THE WNT-BETA-CATENIN CELLULAR MESSAGING SYSTEM” (Wyeth, priority 2007, published 2009):

Assays:
[1] = Functional Dkk1-LRP5-TCF-Luciferase Assay in U2OS Cells (table columns: A=MAX FOLD Induction/DMSO CONTROL; B=fold induction @ 2.0 uM; C=fold induction @ 20.0 uM); format: cell-based, Human; settings: Homo sapiens; for fold induction at 2 µM / fold induction at 20 µM: U2OS; for fold induction at 2 µM: 2.0 uM compound; for fold induction at 20 µM: 20.0 uM compound; for EC50: U2OS cells, TCF-luciferase reporter
In short: (§1)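 U2OS cells co-transfected with 16×TCF-TK-firefly luciferase, TK-Renilla control, Wnt3a and Dkk1, then frozen; thawed cells (~5,000/well, ~5% FBS, phenol red-free RPMI) incubated ~20 h at 37° C. with compound (0.25% DMSO). Firefly luminescence (Bright-Glo) normalized to DMSO mean as fold induction.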

[2] = system: canonical Wnt-β-catenin cellular messaging system (16xTCF-TK-FireFly-Luci reporter, Wnt3a and Dkk1 co-transfected U2OS cells); assay: as above; format: cell-based, Human; settings: maximum fold induction over DMSO control
In short: as §1

Row | SMILES | A = MAX FOLD Induction/DMSO CONTROL [2] | EC50 [1] | fold induction at 2 µM [1] | fold induction at 20 µM [1]
1 | Fc1ccc(-c2nc3c(-c4ccc5ccccc5c4)ccnc3n2C2CCNCC2)cc1 [2-(4-fluorophenyl)-7-(2-naphthyl)-3-piperidin-4-yl-3H-imidazo[4,5-b]pyridine] | 1.370 |  | 2.07 | 
2 | COc1ncccc1-c1nc2cc(-c3ccc4ccccc4c3)cnc2n1C1CCNCC1 [2-(2-methoxypyridin-3-yl)-6-(2-naphthyl)-3-piperidin-4-yl-3H-imidazo[4,5-b]pyridine] | 2.030 |  | 2.06 | 0.02
3 | COc1ccc(-c2nc3c(-c4ccc5ccccc5c4)ccnc3n2C2CCNCC2)cc1 [2-(4-methoxyphenyl)-7-(2-naphthyl)-3-piperidin-4-yl-3H-imidazo[4,5-b]pyridine] | 1.320 |  | 1.98 | 
4 | Cc1nc2c(-c3ccc4ccccc4c3)ccnc2n1C1CCNCC1 [2-methyl-7-(2-naphthyl)-3-piperidin-4-yl-3H-imidazo[4,5-b]pyridine] | 3.215 | 895 nM | 2.84 | 
5 | c1cncc(-c2nc3cc(-c4ccc5ccccc5c4)cnc3n2C2CCNCC2)c1 [6-(2-naphthyl)-3-piperidin-4-yl-2-pyridin-3-yl-3H-imidazo[4,5-b]pyridine] | 1.100 |  | 1.75 | 0.005
6 | Oc1cccc(-c2nc3cc(-c4ccc5ccccc5c4)cnc3n2C2CCNCC2)c1 [3-[6-(2-naphthyl)-3-piperidin-4-yl-3H-imidazo[4,5-b]pyridin-2-yl]phenol] | 1.860 | 1220 nM |  | 
7 | c1ccc2cc(-c3ccnc4c3ncn4CCCn3ccnc3)ccc2c1 [3-[3-(1H-imidazol-1-yl)propyl]-7-(2-naphthyl)-3H-imidazo[4,5-b]pyridine] | 2.870 | 10200 nM | 1.76 | 3.31
8 | Cc1nc2c(-c3ccc4ccccc4c3)ccnc2n1[C@H]1CCCNC1 [2-methyl-7-(2-naphthyl)-3-[(3S)-piperidin-3-yl]-3H-imidazo[4,5-b]pyridine] | 1.910 |  | 2.12 | 0.02

The next lines start with results.

Row | A = MAX FOLD Induction/DMSO CONTROL [2] | EC50 [1] | SMILES | fold induction at 2 µM [1] | fold induction at 20 µM [1]
9 | 12.158 | 10700 nM | O=C1OC2(c3ccc(O)cc3Oc3cc(O)ccc32)c2ccc(NC(=S)N3CCC(n4cnc5c(-c6ccc7ccccc7c6)ccnc54)CC3)cc21 [N-(3′,6′-dihydroxy-3-oxo-3H-spiro[2-benzofuran-1,9′-xanthen]-5-yl)-4-[7-(2-naphthyl)-3H-imidazo[4,5-b]pyridin-3-yl]piperidine-1-carbothioamide] | 1.4 | 6.49
10 | 3.881 | 725 nM | c1ccc2cc(-c3ccnc4c3ncn4C3CCNCC3)ccc2c1 [7-(2-naphthyl)-3-piperidin-4-yl-3H-imidazo[4,5-b]pyridine] | 5.4 | 0.063
11 | 1.930 |  | c1ccc2cc(-c3ccnc4c3ncn4CC3CCNCC3)ccc2c1 [7-(2-naphthyl)-3-(piperidin-4-ylmethyl)-3H-imidazo[4,5-b]pyridine] | 2.72 | 
